Measured values from PubChem BioAssay (NCI).
Several values for one entry are separate records, joined by “and”; a condition that tells them apart may be missing. Identical values can stand only once.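 Tested at 5 concentrations; 48 h exposure; 96-well plates; endpoints linearly interpolated, else capped at highest concentration. GI50 is the concentration that inhibits growth by half. TGI marks complete inhibition of growth.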

Columns and labels:
Test in all cases: NCI anticancer screen, dose series, 48 h
SN12C renal = tested on: SN12C renal
HT29 colon = tested on: HT29 colon
A549 NSCLC = tested on: A549 NSCLC
NCI/ADR-RES ovarian = tested on: NCI/ADR-RES ovarian
A498 renal = tested on: A498 renal
CAKI-1 renal = tested on: CAKI-1 renal
T-47D breast = tested on: T-47D breast
HOP-62 NSCLC = tested on: HOP-62 NSCLC
IGROV1 ovarian = tested on: IGROV1 ovarian
PC-3 prostate = tested on: PC-3 prostate

Row | Structure (SMILES) | TGI (SN12C renal) | TGI (HT29 colon) | TGI (A549 NSCLC) | TGI (NCI/ADR-RES ovarian) | TGI (A498 renal) | TGI (CAKI-1 renal) | TGI (T-47D breast) | TGI (HOP-62 NSCLC) | TGI (IGROV1 ovarian) | TGI (PC-3 prostate) | GI50 (SN12C renal) [µM] | GI50 (HT29 colon) [µM] | GI50 (A549 NSCLC) [µM] | GI50 (NCI/ADR-RES ovarian) | GI50 (A498 renal) | GI50 (CAKI-1 renal) | GI50 (T-47D breast) | GI50 (HOP-62 NSCLC) | GI50 (IGROV1 ovarian) | GI50 (PC-3 prostate)
1 | CCc1c(O)c2c(c(O)c1C(C)=O)C(=O)c1c(cc(O)c(C(=O)O)c1C(=O)O)C2=O | > 100 µM | > 100 µM | > 100 µM | > 100 µM | > 100 µM | > 100 µM | > 100 µM | > 100 µM | > 100 µM | > 100 µM |  |  |  |  |  |  |  |  |  | 
2 | NC(Cc1ccnnc1)C(=O)O (centres undefined) | > 100 µM | > 100 µM | > 100 µM | > 100 µM | > 100 µM | > 100 µM | > 100 µM | > 100 µM | > 100 µM | > 100 µM |  |  |  |  |  |  |  |  |  | 
3 | O=S(=O)(O)/C(=C\c1ccccc1)c1ccccc1 (tested in a mixture with another compound) | > 100 µM | > 100 µM | > 100 µM | > 100 µM | > 100 µM | > 100 µM | > 100 µM | > 100 µM | > 100 µM | > 100 µM |  |  |  |  |  |  |  |  |  | 
4 | COc1ccc(/C=C(/C)[N+](=O)[O-])cc1 | 4.62 µM | 11.9 µM | 18.2 µM | 13.6 µM | 8.28 µM | 6.07 µM | > 100 µM | 3.61 µM | 6.2 µM | 5.04 µM |  |  |  |  |  |  |  |  |  | 
5 | O=C(Nc1cccc(O)c1)c1cccc(NC2=C(Cl)C(=O)N(Cc3ccccc3)C2=O)c1 | 22.1 µM | 49.7 µM | 48.3 µM | 37 µM | 28.9 µM | 0.806 µM | 60.5 µM | 33.6 µM | 6.11 µM | 25 µM | 8.26 | 22.2 | 18.8 | 19.7 µM | 13.2 µM | 0.318 µM | 23.5 µM | 19.2 µM | 1.19 µM | 8.29 µM
6 | O=C1C(=O)c2ccccc2C(O)=C1CC=C(Cl)Cl | > 86.9 µM and 137 µM and > 100 µM | 141 µM and > 100 µM | > 78.7 µM and 129 µM and > 100 µM | 56 µM and 174 µM and > 100 µM | 57.8 µM and 96.2 µM and 51 µM | 65.6 µM and 136 µM and > 100 µM | 49.3 µM and 213 µM and > 100 µM | 64.1 µM and 61 µM and > 100 µM | 119 µM and > 100 µM | > 48.8 µM and 134 µM and 72.9 µM | 5.92 | 6.4 | 5.63 | 5.15 µM and 6.97 µM | 15.1 µM and 13.9 µM | 7.47 µM and 7.14 µM | 11 µM and 20.1 µM | 9.44 µM and 14 µM | 4.93 µM and 8.27 µM | 4.7 µM and 2.85 µM
7 | COc1ccc(/C=C/C(=O)c2cc3c(N)c(C(=O)Nc4ccccc4C)sc3nc2C)cc1 | > 50 µM | > 50 µM | > 50 µM | 2 µM | 2.64 µM | > 50 µM | > 50 µM | > 50 µM | > 50 µM | > 50 µM | 0.833 | 0.487 | 0.905 | 0.228 µM | 0.197 µM | 0.392 µM | 0.322 µM | 0.779 µM | 0.655 µM | 0.285 µM
8 | O=C1c2ccn(CCCCN3CCCCC3)c2C(=O)c2c1c(O)c1ccccc1c2O | 45 µM | > 100 µM | 33.9 µM | 55.6 µM | 35.1 µM | 3.83 µM | > 59.6 µM | 35.4 µM | > 100 µM | 18.1 µM | 16.5 | 4.14 | 10.3 | 14.4 µM | 15.3 µM | 1.63 µM | 23.6 µM | 13.4 µM | 11.1 µM | 4.76 µM
9 | COc1cc(NCc2ccccc2O)c2ncccc2c1 | > 100 µM | 94.1 µM | > 100 µM | 85.3 µM | 60.5 µM | 34.1 µM | > 100 µM | > 100 µM | 56.2 µM | 90.6 µM | 34 | 19.4 | 49.1 | 23.2 µM | 13.2 µM | 6.02 µM | 20.4 µM | 19.7 µM | 13.7 µM | 10.6 µM
10 | CC(C)(C)[Si](C)(C)OCC1C=CC(n2cnc3c(N)ncnc32)O1 (centres undefined) | > 100 µM | > 100 µM | > 100 µM | > 100 µM | > 100 µM | > 100 µM | > 100 µM | > 100 µM | > 100 µM | > 100 µM |  |  |  |  |  |  |  |  |  | 
11 | C1=C(c2ccccc2)SC=C(c2ccccc2)S1 | > 100 µM | 75.1 µM | > 100 µM | 64 µM | > 100 µM | > 100 µM | > 100 µM | > 100 µM | > 100 µM | > 100 µM |  |  |  |  |  |  |  |  |  | 
12 | COc1ccc(Cl)cc1NC(=O)c1cccc([N+](=O)[O-])c1O | > 75.3 µM | > 95.6 µM | 45.2 µM | 64.4 µM | 35.4 µM | > 64.8 µM | > 100 µM | 21.4 µM | > 92.5 µM | > 100 µM |  |  |  |  |  |  |  |  |  | 
13 | CC1SC(c2c(Cl)cccc2Cl)N(NC(=O)C(O)c2ccccc2)C1=O (centres undefined) | > 100 µM | > 100 µM | > 100 µM | > 100 µM | > 100 µM | > 100 µM | > 100 µM | > 100 µM | > 100 µM | > 100 µM | > 100 | > 100 | 94 | 45.4 µM | 75.7 µM | 62.1 µM | 48.2 µM | 89.3 µM | 62.9 µM | 39.7 µM
14 | CC(=O)c1cc2c(c3ccsc13)-c1ccccc1CC2 | > 100 µM | > 100 µM | > 100 µM | 44.8 µM | 67.8 µM | > 100 µM | > 100 µM | > 100 µM | > 100 µM | > 100 µM | 34.7 | 58.4 | 35.7 | 16.6 µM | 17.2 µM | 29.4 µM | > 100 µM | 36.4 µM | 36 µM | 27.9 µM
15 | COc1cc2cc(Oc3ccc(NC(=O)Nc4ccc(Cl)c(C(F)(F)F)c4)cc3)c(C)nc2cc1OC | 6.12 µM | 3.98 µM | 4.16 µM | 4.91 µM | 3.32 µM | 2.54 µM | 7.9 µM | 5.32 µM | 9.83 µM | 2.96 µM | 1.31 | 1.2 |  | 1.06 µM | 0.754 µM | 0.782 µM | 1.21 µM | 1.3 µM | 2.34 µM | 0.781 µM
